We go through 1 compound from publication PMC7782499, “Progerinin, an optimized progerin-lamin A binding inhibitor, ameliorates premature senescence phenotypes of Hutchinson-Gilford progeria syndrome” (Communications Biology, 2021).

Data set [1] can be described thus: Liver microsomal stability, mouse. Type of data set: in vitro ADME. To be noted: liver microsomes, read-out: Liver microsomal stability (% remaining during 30min). The procedure: (§1) For PK analysis, 5 mg/kg of JH4 in 10% DMSO, 5% […] solution were intravenously injected and 10 mg/kg of JH4 in 10% NMP and 90% PEG400 solution were orally delivered. At pre-set time-points, blood concentration of JH4 was determined by LC-MS/MS analysis[22],[23]. Other chemicals were also tested using similar protocol. In vitro ADME studies (plasma protein binding, CYP inhibition, microsomal stability, plasma stability, and hERG inhibition) were performed by New Drug Development Center (Daegu, Korea) using standard protocols[24],[25].

A further data set can be described thus: Plasma stability, human. It counts as in vitro ADME. The procedure: as §1
A further data set is described as follows: Plasma stability, rat. It counts as in vitro ADME. The procedure: as §1
The next data set deals with Lmna G609G/+ mouse. Nature of the data set: Radiological examination (kyphosis index, incisors). It counts as in vivo. To be noted: Lmna G609G/+ mice. The procedure:
The radiographic study was performed in anaesthetized living mice using a human radiographic system (College of Veterinary Medicine, Gyeongsang National University, Korea). A single radiograph of right lateral view of the whole body was obtained. Age-matched (at 41 weeks old) Lmna^+/+ mice, untreated Lamn^G609G/+ mice, and progerinin-treated Lmna^G609G/+ mice were radiographed. The images were recorded in DICOM format and then transferred to a personal computer. KI[28],[30] and abnormalities of the incisors were evaluated. Data processing and analysis were performed using a RadiAnt DICOM system in Institute of Animal Medicine, College of Veterinary Medicine, Gyeongsang National University (Jinju, Korea). […]
LmnaG609G transgenic mice at 41 weeks of age. Abundant adipose tissues are present in abdomens of
Lmna+/+ and progerin- treated LmnaG609G/+ mice compared to untreated LmnaG609G/+ mice. Kyphosis Index
(KI) index was accessed after 8-week treatment.
untreated LmnaG609G/+, and D011- treated LmnaG609G/+ mice at 41 weeks of age (unpaired t-test), *p < 0.05.
Severity of kyphosis depends on genotype and treatment of SLC-D011. H. Gross morphology of age-

The subject of data set [2] is HGPS cells. Nature of the data set: SA-β-gal staining senescence assay in HGPS cells. It counts as cell-based, human. From the text: Fig. S3. Chemical screening with JH4 derivatives (a total of 53 chemicals except JH010 and SLC -D011 were used). A. Summarized tables for effects of JH4 derivatives. ‘+’ means s t re ngt h of binding affinity or expression level after treatment of chemicals. Middle columns of tables show binding affinity between progerin and lamin A. Third columns of tables show level of progerin expression. […]
severe cytotoxicity (cell death or none). B , C, and D. Examples of screening based on pull-down assay. All chemicals were tested using GST pull-down assay. […]
inhibition activity than JH4. E. Generation of J H4 derivatives. To prevent rapid digestion in vivo, side chain was replaced by amide bond (J H010) or ether bond (SLC-D011).
H3K9me3 levels after treatment with J H010 and D011 in HGPS cells (n = 3 independent experiments; two- […]
with J H4, JH010, and SLC-D011 in HGPS cells (n = 3 independent experiments; two- tailed Student’s t- […]
fibroblasts from normal person and patients with HGPS (n = 3 independent experiments; two- tailed Student’s t -test), **p < 0.001, *p< 0.05. I. Transcriptional levels of progerin are not affected by treatment with SLC-D011. Total RNA was extracted after treatment with SLC-D011 for 7 days. The PCR products correspond to wild- type prelamin A and progerin transcripts. […]

The subject of data set [3] is HGPS cells. Put plainly: RT-PCR of progerin/prelamin A, CENP-A, IL-6, IL-8, BRCA1 transcripts. It counts as cell-based, human. The protocol: For RT-PCR, total cellular RNA was extracted using RNA extraction kit (Qiagen). Gene expression studies were performed using cDNA synthesized from total RNA with MMLV RT (Invitrogen, Carlsbad, USA) and random hexamers. PCR from genomic DNA was perform using DiaStar Taq DNA polymerase (SolGent, Daejeon, Korea) and 50 ng of cDNA. Wild-type prelamin A cDNA was synthesized by PCR amplification using a forward primer, 5′-[…]-3′ and a reverse primer, 5′-[…]-3′. The thermal cycling conditions were as follows: 94°C for 3 min (activation), 94°C for 1 min (denaturation), 61°C for 1 min (annealing) and 72°C for 42 sec (extension) up to 35 cycles. The PCR products were analyzed through 2% agarose electrophoresis and DNA was visualized by ethidium bromide staining and UV photography. Levels of other transcripts were also performed with the following oligonucleotide primers: CENP-A, 5′-[…]-3′ and 5′-[…]-3′; BRCA1, 5′-[…]-3′ and 5′-[…]-3′; IL-6, 5′-[…]-3′ and 5′-[…]-3′; IL-8, 5′-[…]-3′ and 5′-[…]-3′ and GAPDH 5′-[…]-3′ and 5′-[…]-3′.
Fig. S3. Chemical screening with JH4 derivatives (a total of 53 chemicals except JH010 and SLC -D011 were used). A. Summarized tables for effects of JH4 derivatives. ‘+’ means s t re ngt h of binding affinity or expression level after treatment of chemicals. […]

Values joined by “and” are separate entries in the source; they are usually repeats but may differ in a detail not shown here. Identical values can stand only once. Where only a bound is given, the exact number is not on record here.

Consider `CC1(C)Oc2cc3oc(=O)ccc3cc2C[C@@H]1OC/C=C/c1ccccc1` [SLC-D011], for which the amount remaining at 0.5 h in data set [1] was 59.7%; in the data set “Plasma stability, human” (30min), greater than 100%; in “Plasma stability, rat” (30min), 83.6%. In addition, the share remaining at 2 h was greater than 100% in “Plasma stability, human” (120min) and 75.1% in “Plasma stability, rat” (120min). Also, in the data set with Lmna G609G/+ mouse (41 weeks of age), the Abnormalities of incisors result was “ameliorated these abnormalities”. For the same compound, in the data set on Lmna G609G/+ mouse (41 weeks of age), the “Kyphosis index (KI)” value is on record as “recovered”. The Kyphosis index in the data set on Lmna G609G/+ mouse (Ave) is 4.2583; in the data set on Lmna G609G/+ mouse (individual mouse) it was 3.759 and 3.649 and 5.045 and 4.58. Besides, the “Cellular senescence (SA-β-gal staining)” value in the data set with HGPS cells [2] is on record as “could block cellular senescence”. For the same compound, the “mRNA expression of progerin” value with HGPS cells [3] is given as “without alteration of mRNA expression of progerin”.
